Results published in PubChem BioAssay (NCI).
Where “and” joins values, the source holds several entries; their conditions need not be identical. Identical values can stand only once.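 Briefly, cells in 96-well plates were exposed to five compound concentrations for 48 h, and endpoints were estimated by linear interpolation. The concentration for 50% growth inhibition is given as GI50. TGI: total growth inhibition.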

Experiments:
Assay in all cases: growth of human tumour cells (NCI), 48 h
SK-MEL-5 melanoma = tested on: SK-MEL-5 melanoma
SNB-19 CNS = tested on: SNB-19 CNS
TK-10 renal = tested on: TK-10 renal
RXF 393 renal = tested on: RXF 393 renal
OVCAR-3 ovarian = tested on: OVCAR-3 ovarian
NCI-H522 lung = tested on: NCI-H522 lung
A498 renal = tested on: A498 renal
HOP-92 NSCLC = tested on: HOP-92 NSCLC
SR leukemia = tested on: SR leukemia
HS 578T breast = tested on: HS 578T breast

SMILES | GI50 (SK-MEL-5 melanoma) [µM] | TGI (SK-MEL-5 melanoma) | GI50 (SNB-19 CNS) | TGI (SNB-19 CNS) | GI50 (TK-10 renal) | TGI (TK-10 renal) | GI50 (RXF 393 renal) [µM] | TGI (RXF 393 renal) [µM] | GI50 (OVCAR-3 ovarian) | TGI (OVCAR-3 ovarian) | GI50 (NCI-H522 lung) | TGI (NCI-H522 lung) | GI50 (A498 renal) | TGI (A498 renal) | GI50 (HOP-92 NSCLC) [µM] | TGI (HOP-92 NSCLC) | GI50 (SR leukemia) [µM] | TGI (SR leukemia) | GI50 (HS 578T breast) | TGI (HS 578T breast)
COC(=O)[C@H](Cc1c[nH]c2ccccc12)NC(=O)[C@@H](OC)[C@@H]1Cc2cc3cc(OC4CC(OC5CC(O)C(O)C(C)O5)C(O)C(C)O4)c(C)c(O)c3c(O)c2C(=O)[C@H]1OC1CC(OC2CC(OC3CC(C)(O)C(O)C(C)O3)C(O)C(C)O2)C(O)C(C)O1 (some centres not stated) | 0.00621 | 0.0308 µM | 0.00777 µM | > 16.5 µM | 0.0651 µM | > 6.46 µM | 0.00833 | 0.0243 | 0.00701 µM | 0.112 µM | 0.00509 µM | 0.0552 µM | 0.00517 µM | 0.0249 µM | 0.0039 | 0.0333 µM | 0.00376 | > 8.99 µM | 0.00566 µM | 0.157 µM
Cn1cnc([N+](=O)[O-])c1[Se]c1nc(N)nc2c1ncn2C1OC(CO)C(O)C1O (configuration not stated) |  | > 100 µM |  | > 100 µM |  | > 100 µM |  | > 100 |  | > 100 µM |  | > 100 µM |  | > 100 µM |  | > 100 µM |  | > 100 µM |  | > 100 µM
COc1ccc(-n2cc(-c3cc(OC)c(OC)c(OC)c3)[nH]c2=O)cc1Cl | > 100 | > 100 µM | 42.6 µM | > 100 µM | 55.2 µM | > 100 µM |  |  | > 100 µM | > 100 µM | > 100 µM | > 100 µM | 73.9 µM | > 100 µM | 15 | > 100 µM | 55.4 | > 100 µM | 34.9 µM | > 100 µM
Clc1ccc(-c2c(C3=NCCCN3)nnn2-c2ccc(Cl)cc2)cc1 |  | 35.9 µM |  | > 85.3 µM |  | > 77.5 µM |  | 68.8 |  | > 100 µM |  | 64.3 µM |  | > 96.8 µM |  | 64.5 µM |  | 40.7 µM |  | > 59.5 µM
Cc1ccc(C(=O)Nc2ccc(CN3CCN(C)CC3)c(C(F)(F)F)c2)cc1C#Cc1cnc(N)c2ccccc12 | 0.835 | 1.62 µM | 0.769 µM | 1.47 µM | 0.562 µM | 1.36 µM | 0.285 | 1.06 | 0.578 µM | 1.35 µM | 0.465 µM | 1.36 µM | 0.31 µM | 1.3 µM | 0.506 | 2.08 µM | 0.134 | 2.66 µM | 0.647 µM | 2.07 µM
C=C1CC[C@@H]2[C@](C)(COC(C)=O)[C@H](OC(C)=O)CC[C@@]2(C)[C@@H]1CC(Nc1ccc(S(=O)(=O)Nc2ncccn2)cc1)C1=CCOC1=O (some centres not stated) | 1.9 | 3.85 µM | 1.63 µM | 3.76 µM | 2.77 µM | 6.03 µM | 1.95 | 3.58 | 1.21 µM | 2.54 µM | 0.498 µM | 2.07 µM | 12.3 µM | 24.7 µM | 3.1 | 8.85 µM | 0.313 | 17.2 µM | 3.54 µM | 24.4 µM
COc1cc2c(c(OC)c1OC)-c1c(cc3c(c1OC)OCO3)C1OC2C(C)C1C (configuration not stated) (tested in a mixture with another compound) |  | > 100 µM |  | > 100 µM |  | > 100 µM |  | > 100 |  | > 100 µM |  | > 100 µM |  | > 100 µM |  | > 100 µM |  | > 100 µM |  | > 100 µM
CCc1oc2ccccc2c1C(=O)c1cc(I)c(O)c(I)c1 | 3.2 | 13.9 µM | 5.19 µM | 18.9 µM | 9.81 µM | 23.4 µM | 2.98 | 16 | 2.04 µM | 5.12 µM | 1.84 µM | 12.9 µM | 3.84 µM | 17 µM | 1.04 | 7.73 µM | 0.568 | 17.9 µM | 2.22 µM | 7.41 µM
CON(C)C(=O)N1N=C(c2cc(F)ccc2F)SC1(CCCN)c1ccccc1 (configuration not stated) | < 0.01 | 12.2 µM and 12.6 µM | 0.109 µM and < 0.0132 µM | 23.2 µM and 23.7 µM | 3.19 µM and 2.33 µM | 18.8 µM and 17.7 µM | < 0.01 | 0.756 | 0.0298 µM and < 0.01 µM | 12.4 µM and 12.2 µM | 0.0201 µM and < 0.01 µM | 10.7 µM and 5.31 µM | 0.0452 µM and < 0.01 µM | 13.5 µM and 13.4 µM |  | 10.2 µM and 15 µM | < 0.01 | 12.4 µM and 12.6 µM | 0.0555 µM and < 0.01 µM | 17.4 µM and 21.8 µM
O=C1/C(=C/c2ccc(O)cc2)CSc2ccc(Cl)cc21 | 12.3 | 24.7 µM | 14.1 µM | 27.4 µM | 15.6 µM | 34.2 µM | 17.9 | 37.7 | 5.69 µM | 19.4 µM | 3.25 µM | 10.7 µM | 15 µM | 28.4 µM | 21.7 | > 100 µM | 2.14 | > 100 µM | 2.9 µM | 7.36 µM
